13 molecules from PubChem BioAssay AID200 (DTP/NCI, 2004) can be followed below.

Structures are written as SMILES. Several values for one entry are separate records, joined by “and”; a condition that tells them apart may be missing. Equal entries are not always repeated. Inconclusive results and toxic doses are left out. *1 amine or outer side, *2 acyl side, *3 side chain or, on linkers, in order; H or OH if unused. Where a SMILES comes first, the peptide text is derived from it. Bridges are numbered along the chain shown (N, C = ends). Roman numbers before positions name the chains, in order. [ ]: non-standard residue; d: D form. Actinocin(9to1) = Cc1c2oc3c(C)ccc(C(=O)[*:1])c3nc-2c(C(=O)[*:2])c(N)c1=O; aThr = C[C@H](O)[C@H](N)C(=O)O; NMeV = CN[C@H](C(=O)O)C(C)C; Sar = CNCC(=O)O

For the test, the system named is B6C3F1 mice, B16 melanoma ip, median survival T/C. Description: NCI In Vivo Anticancer Drug Screen. Data for tumor model B16 Melanoma (intraperitoneal) in B6C3F1 mice. The settings on record: endpoint: median survival time, higher = longer survival. The method, boiled down:
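Mice bearing transplanted tumor were dosed with compound or vehicle, and survival was recorded. Activity is expressed as the treated-group measurement (T) divided by the vehicle control measurement (C).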

Setting [1] is: dose: 12.5 mg/kg/injection, schedule: Q01DX009 (ip), vehicle: saline with Tween-80.
Where [2] appears, read: dose: 25.0 mg/kg/injection, schedule: Q01DX009 (ip), vehicle: saline with Tween-80.
[3] abbreviates: dose: 50.0 mg/kg/injection, schedule: Q01DX009 (ip), vehicle: saline with Tween-80.
[4] abbreviates: dose: 100.0 mg/kg/injection, schedule: Q01DX009 (ip), vehicle: saline with Tween-80.
Where [5] appears, read: dose: 200.0 mg/kg/injection, schedule: Q01DX009 (ip), vehicle: saline with Tween-80.
Where [6] appears, read: dose: 12.5 mg/kg/injection, schedule: Q01DX009 (ip), vehicle: Klucel (hydroxypropylcellulose) (HPC).
Setting [7] is: dose: 25.0 mg/kg/injection, schedule: Q01DX009 (ip), vehicle: Klucel (hydroxypropylcellulose) (HPC).
[8] abbreviates: dose: 50.0 mg/kg/injection, schedule: Q01DX009 (ip), vehicle: Klucel (hydroxypropylcellulose) (HPC).
Setting [9] is: dose: 100.0 mg/kg/injection, schedule: Q01DX009 (ip), vehicle: Klucel (hydroxypropylcellulose) (HPC).
Where [10] appears, read: dose: 200.0 mg/kg/injection, schedule: Q01DX009 (ip), vehicle: Klucel (hydroxypropylcellulose) (HPC).

For the molecule `COc1cccc2c1C(=O)c1c(O)c3c(c(O)c1C2=O)C[C@@](O)(C(=O)CO)C[C@@H]3OC1CC(N)C(O)C(C)O1` (some centres undefined), the T/C (dose: 0.12 mg/kg/injection, schedule: Q01DX009 (ip), vehicle: water) was 166 % of control; the T/C (dose: 0.13 mg/kg/injection, schedule: Q01DX009 (ip), vehicle: water) is 195 % of control; the T/C (dose: 0.25 mg/kg/injection, schedule: Q01DX009 (ip), vehicle: water) is 188 % of control and 212 % of control and 252 % of control; the T/C (dose: 0.5 mg/kg/injection, schedule: Q01DX001 (ip), vehicle: saline) is 152 % of control and 159 % of control; the T/C (dose: 0.5 mg/kg/injection, schedule: Q01DX009 (ip), vehicle: water) is 226 % of control and 247 % of control and 285 % of control; the T/C (dose: 1.0 mg/kg/injection, schedule: Q01DX001 (ip), vehicle: saline) is 165 % of control and 193 % of control. Besides, the T/C by setting is: (dose: 1.0 mg/kg/injection, schedule: Q01DX009 (ip), vehicle: water) 264 % of control and 285 % of control and 320 % of control; (dose: 2.0 mg/kg/injection, schedule: Q01DX001 (ip), vehicle: saline) 151 % of control and 192 % of control and 244 % of control; (dose: 2.0 mg/kg/injection, schedule: Q01DX005 (ip), vehicle: saline) 326 % of control; (dose: 2.0 mg/kg/injection, schedule: Q01DX009 (ip), vehicle: water) 229 % of control and 278 % of control and 285 % of control; (dose: 4.0 mg/kg/injection, schedule: Q01DX001 (iv), vehicle: saline) 109 % of control; (dose: 4.5 mg/kg/injection, schedule: Q01DX001 (ip), vehicle: saline) 195 % of control. The T/C (dose: 9.0 mg/kg/injection, schedule: Q01DX001 (ip), vehicle: saline) is 174 % of control and 255 % of control; the T/C (dose: 18.0 mg/kg/injection, schedule: Q01DX001 (ip), vehicle: saline) was 103 % of control; the T/C (dose: 10.0 micrograms/kg/injection, schedule: Q01DX005 (ip), vehicle: saline) was 100 % of control; the T/C (dose: 10.0 micrograms/mouse/injection, schedule: Q01DX005 (ip), vehicle: saline) was 220 % of control; the T/C (dose: 20.0 micrograms/kg/injection, schedule: Q01DX005 (ip), vehicle: saline) is 116 % of control; the T/C (dose: 20.0 micrograms/mouse/injection, schedule: Q01DX005 (ip), vehicle: saline) was 197 % of control. Besides, the T/C (dose: 40.0 micrograms/mouse/injection, schedule: Q01DX005 (ip), vehicle: saline) is 273 % of control.
Consider `COCCOC`, for which the T/C (dose: 100.0 mg/kg/injection, schedule: Q01DX009 (ip), vehicle: saline) is 98 % of control; the T/C (dose: 200.0 mg/kg/injection, schedule: Q01DX009 (ip), vehicle: saline) was 94 % of control; the T/C (dose: 400.0 mg/kg/injection, schedule: Q01DX009 (ip), vehicle: saline) is 96 % of control.
On to `CN1CCN(Cc2nc3cccc4c3c([n+]2[O-])-c2ccccc2-4)CC1`, for which the T/C runs as follows: under setting [1], 98 % of control; under setting [2], 99 % of control; under setting [3], 110 % of control; under setting [4], 106 % of control; under setting [5], 120 % of control.
Take `Cc1c2oc3c(C)ccc(C(=O)N[C@@H]4C(=O)N[C@H](C(C)C)C(=O)N5CCC[C@H]5C(=O)N(C)CC(=O)N(C)[C@@H](C(C)C)C(=O)O[C@H]4C)c3nc-2c(C(=O)N[C@@H]2C(=O)N[C@H](C(C)C)C(=O)N3CCC[C@H]3C(=O)N(C)CC(=O)N(C)[C@@H](C(C)C)C(=O)O[C@H]2C)c(N)c1=O` (I: [aThr][dV]P[Sar][NMeV] / II: [aThr][dV]P[Sar][NMeV]; ester I:1-I:C, II:1-II:C; linker I:N-II:N via Actinocin(9to1)): the T/C is 118 % of control (dose: 6.25 micrograms/kg/injection, schedule: Q01DX009 (ip), vehicle: saline + alcohol); 117 % of control (dose: 6.25 micrograms/kg/injection, schedule: Q01DX009 (ip), vehicle: water); 108 % of control and 110 % of control (dose: 6.3 micrograms/kg/injection, schedule: Q01DX009 (ip), vehicle: saline + alcohol); 115 % of control (dose: 12.5 micrograms/kg/injection, schedule: Q01DX009 (ip), vehicle: saline + alcohol); 151 % of control (dose: 25.0 micrograms/kg/injection, schedule: Q01DX009 (ip), vehicle: water); 172 % of control (dose: 50.0 micrograms/kg/injection, schedule: Q01DX009 (ip), vehicle: saline + alcohol). The T/C was 171 % of control (dose: 50.0 micrograms/kg/injection, schedule: Q01DX009 (ip), vehicle: water); 160 % of control and 166 % of control (dose: 100.0 micrograms/kg/injection, schedule: Q01DX009 (ip), vehicle: saline + alcohol); 181 % of control (dose: 100.0 micrograms/kg/injection, schedule: Q01DX009 (ip), vehicle: water); 159 % of control and 174 % of control (dose: 200.0 micrograms/kg/injection, schedule: Q01DX009 (ip), vehicle: saline + alcohol).
For the molecule `CC(=O)Oc1[nH]c(=O)c2cccc3c2c1CCC3`, the T/C (dose: 400.0 mg/kg/injection, schedule: Q01DX009 (ip), vehicle: saline with Tween-80) is 120 % of control.
For `C[C@]12CC[C@@H]3c4ccc(O)cc4CC[C@H]3[C@@H]1CC[C@@H]2O`, the T/C is, setting by setting: (dose: 6.25 mg/kg/injection, schedule: Q01DX009 (ip), vehicle: Klucel (hydroxypropylcellulose) (HPC)) 89 % of control; under setting [6], 98 % of control; under setting [7], 90 % of control; under setting [8], 94 % of control; under setting [9], 90 % of control; under setting [10], 89 % of control.
Regarding `O=C1C2CC(CN3CCCCC23)C2CCCCN12` (centres undefined), the T/C reads like this: (dose: 37.5 mg/kg/injection, schedule: Q01DX009 (ip), vehicle: saline) 104 % of control; (dose: 75.0 mg/kg/injection, schedule: Q01DX009 (ip), vehicle: saline) 105 % of control; (dose: 150.0 mg/kg/injection, schedule: Q01DX009 (ip), vehicle: saline) 97 % of control.
In the case of `S=c1sc2ccccc2n1CN1CCOCC1`, the T/C runs as follows: under setting [1], 99 % of control and 102 % of control; (dose: 18.0 mg/kg/injection, schedule: Q01DX009 (ip), vehicle: saline with Tween-80) 89 % of control; under setting [2], 109 % of control and 112 % of control; (dose: 30.0 mg/kg/injection, schedule: Q01DX009 (ip), vehicle: saline with Tween-80) 91 % of control; under setting [3], 113 % of control and 100 % of control; (dose: 83.33 mg/kg/injection, schedule: Q01DX009 (ip), vehicle: saline with Tween-80) 100 % of control. Also, the T/C is, setting by setting: under setting [4], 102 % of control and 105 % of control; (dose: 138.88 mg/kg/injection, schedule: Q01DX009 (ip), vehicle: saline with Tween-80) 106 % of control; under setting [5], 95 % of control and 101 % of control.
Consider `[Cl][Pt+2][Cl].[NH-]CC1(C[NH-])CCC1`, for which the T/C was 107 % of control (dose: 0.19 mg/kg/injection, schedule: Q01DX009 (ip), vehicle: suspension in saline); 114 % of control (dose: 0.39 mg/kg/injection, schedule: Q01DX009 (ip), vehicle: suspension in saline); 123 % of control (dose: 0.78 mg/kg/injection, schedule: Q01DX009 (ip), vehicle: suspension in saline); 151 % of control (dose: 1.56 mg/kg/injection, schedule: Q01DX009 (ip), vehicle: suspension in saline); 167 % of control (dose: 3.12 mg/kg/injection, schedule: Q01DX009 (ip), vehicle: suspension in saline).
`C=C(C)[C@@H]1CC[C@]2(C(=O)OC)CC[C@]3(C)[C@H](CC[C@@H]4[C@@]5(C)CC[C@H](O)C(C)(C)[C@@H]5CC[C@]43C)[C@@H]12`: the T/C under setting [7] is 107 % of control and the T/C under setting [8] is 86 % of control.
On to `N/C(=N\OC(=O)Nc1ccc(CSc2ccc(Cl)cc2)o1)c1ccccn1`, for which the T/C was 97 % of control under setting [6]; 95 % of control under setting [7]; 91 % of control under setting [8]; 91 % of control under setting [9]; 86 % of control under setting [10].
`CC(=O)OC1=C(Cl)CCc2ccccc21`: the T/C (dose: 37.5 mg/kg/injection, schedule: Q01DX009 (ip), vehicle: saline with Tween-80) is 115 % of control; the T/C (dose: 75.0 mg/kg/injection, schedule: Q01DX009 (ip), vehicle: saline with Tween-80) was 96 % of control; the T/C (dose: 150.0 mg/kg/injection, schedule: Q01DX009 (ip), vehicle: saline with Tween-80) was 98 % of control.
Turning to `O=C(Nc1ccc([N+](=O)[O-])cc1)Nc1nccs1`, the T/C was 111 % of control and 120 % of control (dose: 12.5 mg/kg/injection, schedule: Q01DX009 (ip), vehicle: distilled water + Tween-80); 111 % of control (dose: 25.0 mg/kg/injection, schedule: Q01DX009 (ip), vehicle: distilled water + Tween-80); 105 % of control (dose: 100.0 mg/kg/injection, schedule: Q01DX009 (ip), vehicle: distilled water + Tween-80).
